Source: patent US12577252B2, “Drug for the treatment of diseases caused by bacteria” (priority 2020, dated 2026)

Legend:
[1] = system: S. aureus ATCC 29213; test: MIC by serial dilution (CLSI), S. aureus ATCC 29213; format: cell-based, Staphylococcus aureus
[2] = system: S pyogenes; test: MIC by serial dilution (CLSI), firmicutes bacteria; format: cell-based, Streptococcus pyogenes; conditions: fresh clinical isolate
Description: (§1) Determination of the antimicrobial activity of substances was carried out on dense and liquid nutrient media. To assess the minimum inhibitory concentration (MIC), the serial dilution method was used, according to the recommendations of CLSI (Clinical Laboratories and Standards Institute, formerly National Committee for Clinical Laboratory Standards) (Clinical Laboratories and Standards Institute. Methods for Dilution Antimicrobial Susceptibility Tests for Bacteria That Grow Aerobically; Approved Standard—Seventh Edition Document M7-A7 CLSI, Wayne, Pa., 2006; Clinical Laboratories and Standards Institute).
(§2) The assessment of the antimicrobial activity of substances against firmicute bacteria was performed on fresh clinical isolates of strains of Streptococcus pyogenes, Streptococcus mitis, Bacillus subtilis, Bacillus cereus, Corynebacterium ulcerans, Micrococcus luteus.

[3] = system: S. mitis; test: MIC by serial dilution (CLSI), firmicutes bacteria; format: cell-based, Streptococcus mitis; conditions: fresh clinical isolate
Description: as §1, §2

[4] = system: B. subtilis; test: MIC by serial dilution (CLSI), firmicutes bacteria; format: cell-based, Bacillus subtilis; conditions: fresh clinical isolate
Description: as §1, §2

[5] = system: B. cereus; test: MIC by serial dilution (CLSI), firmicutes bacteria; format: cell-based, Bacillus cereus; conditions: fresh clinical isolate
Description: as §1, §2

[6] = system: L. monocytogenes; test: MIC by serial dilution (CLSI), firmicutes bacteria; format: cell-based
[7] = system: C. ulcerans; test: MIC by serial dilution (CLSI), firmicutes bacteria; format: cell-based, Corynebacterium ulcerans; conditions: fresh clinical isolate
Description: as §1, §2

[8] = system: M. lutteus; test: MIC by serial dilution (CLSI), firmicutes bacteria; format: cell-based, Micrococcus luteus; conditions: fresh clinical isolate
Description: as §1, §2

[9] = system: Escherichia coli ATCC29592; test: MIC, gracilicutes and wall-less bacteria; format: cell-based; conditions: E. coli ATCC29592
Description: as §1, with “Institute). The study of the effect on strains was performed on fresh clinical isolates of Haemophilus influenzae, Neisseria meningitides, Ureaplasma urealyticum strains, as well as on the Escherichia coli ATCC29592 strain.” for “Institute).”

[10] = system: H. influenzae; test: MIC, gracilicutes and wall-less bacteria; format: cell-based, Haemophilus influenzae; conditions: fresh clinical isolate, Table 2
Description: as §1, with “Institute). The study of the effect on strains was performed on fresh clinical isolates of Haemophilus influenzae, Neisseria meningitides, Ureaplasma urealyticum strains, as well as on the Escherichia coli ATCC29592 strain.” for “Institute).”

[11] = system: N. meningitides; test: MIC, gracilicutes and wall-less bacteria; format: cell-based, Neisseria meningitides; conditions: fresh clinical isolate
Description: as §1, with “Institute). The study of the effect on strains was performed on fresh clinical isolates of Haemophilus influenzae, Neisseria meningitides, Ureaplasma urealyticum strains, as well as on the Escherichia coli ATCC29592 strain.” for “Institute).”

[12] = system: U. urealyticum; test: MIC, gracilicutes and wall-less bacteria; format: cell-based, Ureaplasma urealyticum; conditions: fresh clinical isolate
Description: as §1, with “Institute). The study of the effect on strains was performed on fresh clinical isolates of Haemophilus influenzae, Neisseria meningitides, Ureaplasma urealyticum strains, as well as on the Escherichia coli ATCC29592 strain.” for “Institute).”

[13] = system: S. aureus SA77; test: MIC, S. aureus strains with multiple resistance; format: cell-based, Staphylococcus aureus; conditions: SA77, VRSA strain
Description: as §1
(§3) The study of the effect of Compound 1a on strains with multiple resistance to existing antibiotics was performed on fresh clinical isolates of strains: S. aureus VT-V-18, S. aureus VT-E-25 S. aureus VT-A-199 and S. aureus VT-P-82, as well as S. aureus strain American Type Culture Collection (Rockville, Md.) and strains S. aureus SA77 and S. aureus SA85,

[14] = system: S. aureus SA85; test: MIC, S. aureus strains with multiple resistance; format: cell-based, Staphylococcus aureus; conditions: SA85, VRSA strain
Description: as §1, §3

[15] = system: S. aureus VT-A-199; test: MIC, S. aureus strains with multiple resistance; format: cell-based, Staphylococcus aureus; conditions: VT-A-199, MRSA strain, clinical isolate
Description: as §1, §3

[16] = system: S. aureus VT-E-25; test: MIC, S. aureus strains with multiple resistance; format: cell-based, Staphylococcus aureus; conditions: VT-E-25, MRSA strain, clinical isolate
Description: as §1, §3

[17] = system: S. aureus VT-P-82; test: MIC, S. aureus strains with multiple resistance; format: cell-based, Staphylococcus aureus; conditions: VT-P-82, MRSA strain, clinical isolate
Description: as §1, §3

[18] = system: S. aureus VT-V-18; test: MIC, S. aureus strains with multiple resistance; format: cell-based, Staphylococcus aureus; conditions: VT-V-18, MRSA strain, clinical isolate
Description: as §1, §3

[19] = system: various strains of S. aureus; test: Effects on various strains of S. aureus (MRSA, VRSA, MSSA), overall; format: cell-based, Staphylococcus aureus; conditions: S. aureus strains of Table 3
Description: as §1, §3

[20] = system: S. aureus ANCC29213 biofilms; test: Survival of bacteria in biofilms (CFU count); format: cell-based, Staphylococcus aureus; conditions: 10 μg/ml; for Number of CFU: 24 h biofilm, incubated 24 hours at 37° C.
Description: S. aureus ANCC29213 bacteria were grown in a 24-well plateau in LB medium for 24 hours at 37° C. After that, Compound 1a and lincomycin (8 wells for each preparation and control without preparations) were added to the wells at final concentrations of 10 μg/ml and incubated for 24 hours at 37° C. After incubation, the medium was removed, the biofilms were washed with a sterile solution of isotonic sodium chloride, the biofilms were removed from the bottom of the wells, resuspended in isotonic sodium chloride solution, and the number of colony forming units (CFU) was determined by the method of serial dilutions.

[21] = system: Staphylococcus aureus ATCC 38591; test: Acute generalized infection in C57BL6 mice, death of mice; format: in vivo; conditions: 10 mice
Description: To study the chemotherapeutic efficacy, a model of acute generalized infection in small animals was used. C57BL6 mice were intraperitoneally infected with Staphylococcus aureus ATCC 38591 at a dose of 1×10^8 microbial cells. The infectious dose was established in preliminary studies. Mice infected with the same dose of microbial culture but not treated served as controls.
The preparations were dissolved in an isotonic sodium chloride solution and substance 1a or Lincomycin was administered. 2 hours after infection, the drugs were administered orally daily at doses of 10 to 100 mg/kg, 2 times a day.
The death of mice was taken into account daily for 7 days.

[22] = system: S. aureus; test: Clinical treatment of tonsillitis, eradication of the pathogen; format: in vivo, Staphylococcus aureus; conditions: for Eradication, %: S. aureus tonsillitis patients
Description: (§4) This pathology was chosen by us as one of the above lists to confirm the effectiveness and practical applicability of the claimed compound. The study was performed on two groups of patients, totaling 138 people, who received the drug enterally twice a day at doses from 500 mg to 2000 mg. The compound was administered as a pharmaceutical composition containing Compound 1a in acetate form in an isotonic solution of a pharmaceutically acceptable sodium chloride carrier.

[23] = system: S. pyogenes; test: as above; format: in vivo, Streptococcus pyogenes; conditions: for Eradication, %: S. pyogenes tonsillitis patients
Description: as §4

[24] = system: H. influenzae; test: MIC of 1a and its combinations with antimicrobials, serial dilutions; format: cell-based, Haemophilus influenzae; conditions: liquid nutrient medium, substance alone
Description: We used a strain of H. influenzae grown on a liquid nutrient medium. The minimum inhibitory concentration was determined by the method of serial dilutions.

[25] = system: methicillin- and vancomycin-resistant strains of Staphylococcus aureus and Streptococcus spp; conditions: literature statement; cited from earlier work
[26] = 10 mg/kg orally 2 times a day, day 2
[27] = 10 mg/kg orally 2 times a day, day 4
[28] = 20 mg/kg orally 2 times a day, day 3
[29] = 20 mg/kg orally 2 times a day, day 4
[30] = Haemophilus influenzae, read-out: MIC

With `CC(=O)[O-].O=c1[nH]c(=O)c2cc3cc(Br)cc(Br)c3[o+]c2[nH]1` [Compound 1a, 7,9-dibromo-2,4-dioxo-1,2,3,4-tetrahydrochromeno[2,3-d]-pyrimidinium-10 acetate] the MIC ([1]; ATCC 29213, strain MSSA, Table 3) was 0.5 µg/mL, the MIC ([1]; S. aureus ATCC 29213, Table 1) was 0.5 µg/mL and the MIC [2] was 0.1 µg/mL. For the same compound, the MIC [3] was 0.1 µg/mL, the MIC [4] was 1.0 µg/mL and the MIC [5] was 1.0 µg/mL. The MIC [6] was 1.0 µg/mL, the MIC [7] was 0.5 µg/mL and the MIC [8] was 1.0 µg/mL. For the same compound, the MIC [9] was 20.0 µg/mL, the MIC [10] was 10.0 µg/mL and the MIC [11] was 10.0 µg/mL. The MIC [12] was 10.0 µg/mL, the MIC [13] was 0.5 µg/mL and the MIC [14] was 1.0 µg/mL. It also gave an MIC [15] of 1.0 µg/mL, an MIC [16] of 1.0 µg/mL and an MIC [17] of 2.0 µg/mL. The MIC [18] was 0.5 µg/mL, the Resistance [19] was “Not detected” and the “efficacy on methicillin/vancomycin-resistant versus susceptible strains” value [19] was “did not differ”. The “reduction of the number of bacteria capable of growth in biofilms” value ([20]; 24 hours) was 1000 times, the “Number of CFU” value [20] was 4.0 ± 1.0 × 10^5 CFU and the Mice death [21, 26] was 1. The Mice death [21, 27] was 1, the Mice death ([21]; 10 mg/kg orally 2 times a day, day 5) was 2 and the Mice death ([21]; 10 mg/kg orally 2 times a day, day 6) was 1. It also gave a Mice death [21, 28] of 1, a Mice death [21, 29] of 1 and a Mice death ([21]; 20 mg/kg orally 2 times a day, day 5) of 2. The “Eradication, %” value ([22]; day 4, enterally twice a day) was 85.14%, the “Eradication, %” value ([22]; day 8) was 91.89% and the “Eradication, %” value ([22]; day 14) was 94.59%. For the same compound, the “Eradication, Number of patients” value ([22]; day 4, enterally twice a day) was 63, the “Eradication, Number of patients” value ([22]; day 8) was 68 and the “Eradication, Number of patients” value ([22]; day 14) was 70. The “Eradication, %” value ([23]; day 4) was 94.37%, the “Eradication, %” value ([23]; day 8) was 95.77% and the “Eradication, %” value ([23]; day 14) was 95.77%. For the same compound, the “Eradication, Number of patients” value ([23]; day 4) was 67, the “Eradication, Number of patients” value ([23]; day 8) was 68 and the “Eradication, Number of patients” value ([23]; day 14) was 68. It also gave an MIC [24] of 10.0 µg/mL.

`O=C([O-])CCC(=O)[O-].O=c1[nH]c(=O)c2cc3cc(Br)cc(Br)c3[o+]c2[nH]1.O=c1[nH]c(=O)c2cc3cc(Br)cc(Br)c3[o+]c2[nH]1` [Compound 1b, 7,9-dibromo-2,4-dioxo-1,2,3,4-tetrahydrochromeno[2,3-d]-pyrimidinium-10 succinate] gave an MIC ([1]; S. aureus ATCC 29213, Table 1) of 1.0 µg/mL, an MIC [2] of 2.0 µg/mL and an MIC [3] of 2.0 µg/mL. The MIC [4] was 2.0 µg/mL, the MIC [5] was 4.0 µg/mL and the MIC [6] was 4.0 µg/mL. It also gave an MIC [7] of 2.0 µg/mL, an MIC [8] of 2.0 µg/mL and an MIC [9] of 30.0 µg/mL. The MIC [10] was 20.0 µg/mL, the MIC [11] was 20.0 µg/mL and the MIC [12] was 20.0 µg/mL.

Compound `C[C@H]1COc2c(N3CCN(C)CC3)c(F)cc3c(=O)c(C(=O)O)cn1c23` [Levofloxacin] has an MIC [24, 30] of 0.05 µg/mL.

With `CCC[C@@H]1C[C@@H](C(=O)N[C@@H]([C@H]2O[C@H](SC)[C@H](O)[C@@H](O)[C@H]2O)[C@@H](C)O)N(C)C1` [Lincomycin] the “change of the number of CFUs in biofilms” value ([20]; 24 hours) was “does not change the number of CFUs”, the “Number of CFU” value [20] was 2.0 ± 1.0 × 10^8 CFU and the Mice death [21, 26] was 2. For the same compound, the Mice death [21, 27] was 1, the Mices death ([21]; 10 mg/kg orally 2 times a day, fifth day, head printed 1) was 2 and the Mices death ([21]; 10 mg/kg orally 2 times a day, sixth day column, head printed 2) was 1. It also gave a Mice death [21, 28] of 1, a Mice death [21, 29] of 1 and a Mices death ([21]; 20 mg/kg orally 2 times a day, fifth day, head printed 1) of 3. The Mices death ([21]; 50 mg/kg orally 2 times a day, day 3) was 1, the Mices death ([21]; 50 mg/kg orally 2 times a day, day 4) was 1 and the Mices death ([21]; 50 mg/kg orally 2 times a day, fifth day, head printed 1) was 2. For the same compound, the “effect on MRSA and VRSA strains” value [25] was “no effect”.

For `CC1(C)S[C@@H]2[C@H](NC(=O)COc3ccccc3)C(=O)N2[C@H]1C(=O)O` [Phenoxymethylpenicillin, reference compound], the “Eradication, %” value ([22]; day 4, enterally twice a day) was 4.11%, the “Eradication, %” value ([22]; day 8) was 9.59% and the “Eradication, %” value ([22]; day 14) was 13.70%. The “Eradication, Number of patients” value ([22]; day 4, enterally twice a day) was 3, the “Eradication, Number of patients” value ([22]; day 8) was 7 and the “Eradication, Number of patients” value ([22]; day 14) was 10. For the same compound, the “Eradication, %” value ([23]; day 4) was 10.14%, the “Eradication, %” value ([23]; day 8) was 11.59% and the “Eradication, %” value ([23]; day 14) was 13.04%. The “Eradication, Number of patients” value ([23]; day 4) was 7, the “Eradication, Number of patients” value ([23]; day 8) was 8 and the “Eradication, Number of patients” value ([23]; day 14) was 9.

Work on `CN(C)[C@@H]1C(O)=C(C(N)=O)C(=O)[C@@]2(O)C(O)=C3C(=O)c4c(O)cccc4[C@@](C)(O)[C@H]3C[C@@H]12` [Tetracycline] yielded an MIC [24, 30] of 2 µg/mL.
